Laboratory results published in paper PMC12147205, “Soybean Lectin Cross-Links Membranes by Binding Sulfatide in a Curvature-Dependent Manner” (Journal of Agricultural and Food Chemistry, 2025).
Values joined by “and” are separate entries in the source; they are usually repeats but may differ in a detail not shown here. Identical values can stand only once. “Also recorded” adds a separate entry of the source.

Experiments:
[1] = target: T1, soybean lectin (Glycine max, UniProt P05046); test: Isothermal titration calorimetry of GalNAc and analogs binding to soybean lectin; settings: for KD / Kd: 50 mM HEPES, 20 mM CaCl2 pH 7, one set of sites model, N fixed to 4, NB = no binding detected (KD over 1–2 mM)
T1 construct: from tissue; host or cells: soybean meal (Glycine max seed meal)
T1 sequence (P05046 33-285): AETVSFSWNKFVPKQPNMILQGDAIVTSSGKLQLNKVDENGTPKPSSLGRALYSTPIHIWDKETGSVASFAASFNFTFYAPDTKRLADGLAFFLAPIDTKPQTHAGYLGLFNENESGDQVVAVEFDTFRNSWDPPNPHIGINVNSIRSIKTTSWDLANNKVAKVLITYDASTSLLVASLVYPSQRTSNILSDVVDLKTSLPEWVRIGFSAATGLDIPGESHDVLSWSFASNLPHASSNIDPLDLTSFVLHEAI
Experimental: Isothermal titration calorimetry (ITC) measurements were performed in a buffer containing 50 mM HEPES and 20 mM CaCl2 (pH 7). […] Each experiment was carried out in duplicate.

[2] = target: T1, soybean lectin; test: Lectin-mediated cross-linking of sulfatide-containing GUVs, confocal microscopy; settings: 7.5 μM lectin; GalNAc at 200 times the lectin concentration
Experimental: Giant unilamellar vesicles (GUVs) were generated as described by Horger et al. Briefly, an agarose solution was prepared by dissolving 4 g of agarose in 100 mL of Milli-Q water. The solution was poured onto one side of a glass slide and allowed to dry. The glass slide was then placed on a hot plate set to 38 °C. A 30 μL stock solution of lipids (3.75 mg/mL) was prepared in a chloroform–methanol mixture, containing 10% sulfatides, 30% DOPC, 30% cholesterol, 28% DOPE, and 2% DOPE-F (GUV-containing sulfatide) or 33.3% DOPC, 33.3% cholesterol, 31.3% DOPE, and 2% DOPE-F (GUV-sulfatide free). This lipid mixture was spread over the agarose layer on the heated glass slide using another glass slide. The slide remained on the hot plate for a few minutes until the solvent evaporated. To remove residual solvent, the glass slide containing the agarose and lipid film was placed in a vacuum chamber for 20 min. GUVs were then generated by placing the prepared glass slide in a Petri dish and covering it with phosphate buffer saline. The GUV-lectin suspension was prepared with a final lectin concentration of 7.5 μM. […] Confocal microscopy was performed using a Nikon AXR point-scanning confocal system built around an inverted Ti2 Eclipse microscope. […] In some cases, a gamma adjustment of 0.9 was applied to enhance fluorescence localization differences within individual vesicles. […]

[3] = target: T1, soybean lectin; test: SPR of lectin binding to sulfatide liposomes immobilized on L1 sensor chip; settings: 0.4 μm liposomes, 10% sulfatide/90% DOPC; two-state reaction model; absence of GalNAc; read-out: KD (apparent), lectin to sulfatide liposomes
Experimental: SPR data were collected using a BIAcore X100 instrument equipped with an L1 sensor chip (Cytiva) coated with 0.4 μm liposomes at room temperature. Liposomes contained 10% sulfatide and 90% DOPC, whereas liposomes without sulfatide were composed of 100% DOPC. All experiments were performed using a buffer consisting of 50 mM HEPES and 140 mM NaCl (pH 7.4). Pretreatment of the sensor chip was performed with 40 mM octyl β-D-glucopyranoside. Liposomes were immobilized onto the L1 sensor chip at a flow rate of 30 μL/min, achieving a typical loading of ∼5500 response units per sensor chip channel. Lectin was used as the analyte across the specified concentration range. […] Data were best fitted using a two-state reaction model, and the apparent K D values were estimated using BIAevaluation software, version 2.0 (Cytiva).

[4] = target: porcine trypsin (Sus scrofa, UniProt P00761); test: Binding of soybean meal trypsin inhibitors to porcine trypsin (Table S2)
porcine trypsin, sequence (P00761 9-231): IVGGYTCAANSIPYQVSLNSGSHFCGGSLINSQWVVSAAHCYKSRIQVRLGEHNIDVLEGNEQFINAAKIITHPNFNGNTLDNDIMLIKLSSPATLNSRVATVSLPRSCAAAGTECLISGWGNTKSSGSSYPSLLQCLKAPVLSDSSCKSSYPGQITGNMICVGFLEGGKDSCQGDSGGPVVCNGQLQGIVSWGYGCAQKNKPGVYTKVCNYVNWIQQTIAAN

[5] = ITC competition, lectin preincubated with sulfatide liposomes (10% sulfatide/90% DOPC)
[6] = ITC competition, lectin preincubated with sulfatide-free liposomes (100% DOPC)
[7] = TI from soybean meal line 17Ti-0204
[8] = TI from soybean meal line 17Ti-0242
[9] = TI from soybean meal line 17Ti-0332
[10] = TI from soybean meal line 17Ti-0534
[11] = TI from soybean meal line Glenn

Molecule: CC(=O)N[C@H]1[C@H]([C@H](O)[C@H](O)CO)O[C@@](OC[C@H]2O[C@@H](O[C@H]3[C@H](O)[C@@H](O)[C@H](O)O[C@@H]3CO)[C@H](O)[C@@H](O)[C@H]2O)(C(=O)O)C[C@@H]1O [6-SL, 6′-Sialyl lactose]
- KD ([1]; ITC, 25 °C): no detectable binding
- Kd ([1]; ITC, 25 °C, read-out: KD): > 1000 µM

Molecule: O=[N+]([O-])c1ccc(O[C@H]2O[C@H](CO)[C@@H](O)[C@H](O)[C@@H]2O)c(Cl)c1 [CNMP, 2-chloro-4-nitrophenyl-α-D-mannopyranoside]
- KD ([1]; ITC, 25 °C): no detectable binding
- Kd ([1]; ITC, 25 °C, read-out: KD): > 1000 µM

Molecule: CC(=O)N[C@@H]1[C@@H](O)[C@@H](O)[C@@H](CO)O[C@H]1O [GalNAc, N-acetyl-D-galactosamine]
- ΔG [1, 5]: –5.6 ± 0 kcal/mol
- ΔH [1, 5]: –9.9 ± 0.2 kcal/mol
- –TΔS [1, 5]: 4.3 ± 0.2 kcal/mol
- ΔG [1, 6]: –5.6 ± 0 kcal/mol
- ΔH [1, 6]: –9.9 ± 0.2 kcal/mol
- –TΔS [1, 6]: 4.3 ± 0.2 kcal/mol
- ΔG ([1]; ITC, 25 °C, pH 7): –5.8 ± 0 kcal/mol
- –TΔS ([1]; ITC, 25 °C, pH 7): 4.5 kcal/mol and 4.5 ± 0.1 kcal/mol
- effect on soybean lectin-mediated cross-linking of sulfatide-containing GUVs [2]: inhibited; also recorded: reduced

Molecule: CO[C@H]1O[C@H](CO)[C@H](O)[C@H](O)[C@H]1NC(C)=O [MGalNAc, Methyl-N-acetyl-2-deoxy-α-D-galactosamine]
- Kd ([1]; ITC, 25 °C, read-out: KD): 73 µM and 73.1 µM
- ΔG ([1]; ITC, 25 °C, pH 7): –5.7 ± 0 kcal/mol
- ΔH ([1]; ITC, 25 °C, pH 7): –10.7 ± 0.1 kcal/mol
- –TΔS ([1]; ITC, 25 °C, pH 7): 5.0 ± 0.1 kcal/mol

Molecule: O=[N+]([O-])c1ccccc1OC1OC(CO)C(O)C(O)C1O [NPGP, 2-Nitrophenyl-β-D-galactopyranoside]
- weaker affinity relative to GalNAc ([1]; ITC): ~10 fold
- ΔG ([1]; ITC, 25 °C, pH 7): –4.3 ± 0 kcal/mol
- ΔH ([1]; ITC, 25 °C, pH 7): –9.8 ± 0.4 kcal/mol
- –TΔS ([1]; ITC, 25 °C, pH 7): 5.5 ± 0.3 kcal/mol
- Kd ([1]; KD, ITC, 25 °C): 789.5 ± 0.7 µM

Molecule: O=[N+]([O-])c1ccc(O[C@H]2O[C@H](CO)[C@@H](O)[C@H](O)[C@@H]2O)cc1 [NPMP, 4-nitrophenyl-α-D-mannopyranoside]
- KD ([1]; ITC, 25 °C): no detectable binding
- Kd ([1]; ITC, 25 °C, read-out: KD): > 1000 µM

Molecule: CCCCCCCCO[C@H]1O[C@H](CO)[C@@H](O)[C@H](O)[C@@H]1O [OMP, Octyl-α-D-mannopyranoside]
- KD ([1]; ITC, 25 °C): no detectable binding
- Kd ([1]; ITC, 25 °C, read-out: KD): > 1000 µM

Molecule: sulfatide
- Kd [3]: 0.264 ± 0.062 µM

B1: BBTI: Birk and Bowman trypsin inhibitor isolated from soybean meal (protein)
chain: DDESSKPCCDQCACTKSNPPQCRCSDMRLNSCHSACKSCICALSYPAQCFCVDITDFCYEPCKPSEDDKEN
modifications: Native protein purified from soybean meal, probably a mixture of Bowman-Birk isoforms
- Kd [4, 7]: 0.1 µM
- Kd [4, 8]: 0.1 ± 0.1 µM
- Kd [4, 9]: 0.2 µM
- Kd [4, 10]: 0.1 µM
- Kd [4, 11]: 0.1 µM

B2: KTI: Kunitz trypsin inhibitor isolated from soybean meal (protein)
chain: DFVLDNEGNPLENGGTYYILSDITAFGGIRAAPTGNERCPLTVVQSRNELDKGIGTIISSPYRIRFIAEGHPLSLKFDSFAVIMLCVGIPTEWSVVEDLPEGPAVKIGENKDAMDGWFRLERVSDDEFNNYKLVFCPQQAEDDKCGDIGISIDHDDGTRRLVVSKNKPLVVQFQKLDKESL
modifications: Native protein purified from soybean meal
- Kd [4, 7]: 9 ± 2 µM
- Kd [4, 8]: 2.4 ± 0.3 µM
- Kd [4, 9]: 1.2 ± 0.1 µM
- Kd [4, 10]: 2.4 ± 0.1 µM
- Kd [4, 11]: 1.1 ± 0.4 µM
